Experimental data reported in US12180146B2, “Antihypertensive polyol compound and derivative thereof” (TAO PHARMACEUTICAL (SUZHOU) CO., LTD, priority 2020, dated 2024).

What was measured:
[1] = system: spontaneously hypertensive rats (SHR); assay: Antihypertensive activity test: blood pressure and heart rate of spontaneously hypertensive rats (SHR); type: in vivo, rat; conditions: 200 mg/kg
Outline: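 Spontaneously hypertensive rats received compound at 200 mg/kg. SBP and heart rate were measured before and after dosing. A drop in SBP of ≥20 mmHg from baseline counted as effective, and heart-rate changes were tested by paired t-test (P<0.05).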

[2] = system: hypoxic pulmonary hypertension model rats; assay: Hypoxic pulmonary hypertension model rats, oral (gavage) treatment for 28 days; type: in vivo, SD rats; conditions: hypoxic PAH rats, po
[3] = after administration (6 h M ± SD), n = 8
[4] = before administration, M ± SD, n = 8

## CCc1cccc(C(O)CO)c1 (stereo not shown) [Compound 1, 1-(3-ethylphenyl)-1,2-ethylene glycol]
[1]
  time after administration of maximum antihypertensive effects: 3 h
[1]; 0 h, N = 8
  SHR heart rate, time after administration 0 h: 356 ± 46.4 beat/min
[1]; 1 h
  Heart rate Difference before and after administration, 1 h: −9 beat/min
  SBP Difference before and after administration, 1 h: 16 mmHg
[1]; 1 h, N = 8
  SHR heart rate, time after administration 1 h: 348 ± 39.3 beat/min
[1]; 1 h, n = 8
  SHR blood pressure (SBP), time after administration 1 h: 176 ± 9.55 mmHg
[1]; 2 h
  Heart rate Difference before and after administration, 2 h: 23 beat/min
  SBP Difference before and after administration, 2 h: 20 mmHg
[1]; 2 h, N = 8
  SHR heart rate, time after administration 2 h: 380 ± 34.1 beat/min
[1]; 2 h, n = 8
  SHR blood pressure (SBP), time after administration 2 h: 172 ± 7.36 mmHg
[1]; 3 h
  Heart rate Difference before and after administration, 3 h: 28 beat/min
  SBP Difference before and after administration, 3 h: 23 mmHg
[1]; 3 h, N = 8
  SHR heart rate, time after administration 3 h: 385 ± 31.5 beat/min
[1]; 3 h, n = 8
  SHR blood pressure (SBP), time after administration 3 h: 169 ± 4.07 mmHg
[1]; 4 h
  Heart rate Difference before and after administration, 4 h: 28 beat/min
  SBP Difference before and after administration, 4 h: 19 mmHg
[1]; 4 h, N = 8
  SHR heart rate, time after administration 4 h: 385 ± 30.4 beat/min
[1]; 4 h, n = 8
  SHR blood pressure (SBP), time after administration 4 h: 173 ± 7.15 mmHg
[1]; 5 h
  Heart rate Difference before and after administration, 5 h: 16 beat/min
  SBP Difference before and after administration, 5 h: 17 mmHg
[1]; 5 h, N = 8
  SHR heart rate, time after administration 5 h: 372 ± 28.5 beat/min
[1]; 5 h, n = 8
  SHR blood pressure (SBP), time after administration 5 h: 175 ± 5.61 mmHg
[1]; 6 h
  Heart rate Difference before and after administration, 6 h: 17 beat/min
  SBP Difference before and after administration, 6 h: 11 mmHg
[1]; 6 h, N = 8
  SHR heart rate, time after administration 6 h: 373 ± 31.3 beat/min
[1]; 6 h, n = 8
  SHR blood pressure (SBP), time after administration 6 h: 180 ± 6.66 mmHg
[1]; [3]
  Blood pressure (SBP, mmHg) After administration: 174 ± 4.01 mmHg
  Heart rate (beat/min) After administration: 368 ± 25.5 beat/min
[1]; after administration minus baseline (6 h)
  Heart rate Difference (beat/min): 12 beat/min
[1]; baseline minus after administration (6 h)
  Blood pressure Difference mmHg: 18 mmHg
[1]; [4]
  Blood pressure (SBP, mmHg) Baseline: 192 ± 7.98 mmHg
  Heart rate (beat/min) Baseline: 356 ± 46.4 beat/min
[2]; 10 mg/kg
  RVSP: 70.28 ± 4.64 mmHg
  mPAP: 25.26 ± 3.46 mmHg
[2]; 10 mg/kg, RV/(LV+S)
  RVHI: 0.467 ± 0.030
[2]; 10 mg/kg, medium thickness ratio of small pulmonary arteries
  2 × MT/ED: 0.361 ± 0.020
[2]; 25 mg/kg
  2 × MT/ED: 0.323 ± 0.022
  RVHI: 0.472 ± 0.026
  RVSP: 71.34 ± 2.12 mmHg
  mPAP: 22.36 ± 1.78 mmHg
[2]; 50 mg/kg
  2 × MT/ED: 0.304 ± 0.021
  RVHI: 0.456 ± 0.019
  RVSP: 67.46 ± 4.28 mmHg
  mPAP: 21.66 ± 3.28 mmHg
[2]; 100 mg/kg
  2 × MT/ED: 0.266 ± 0.014
  RVHI: 0.301 ± 0.017
  RVSP: 59.12 ± 2.12 mmHg
  mPAP: 15.89 ± 1.12 mmHg
[2]; 200 mg/kg
  2 × MT/ED: 0.241 ± 0.011
  RVHI: 0.254 ± 0.022
  RVSP: 54.38 ± 2.98 mmHg
  mPAP: 15.21 ± 1.92 mmHg
